# Measured values: patent US10538797B2, “Method for the biotechnological production of flavone glycoside dihydrochalcones” (priority 2014, dated 2020)
# System: E. coli BL21 transformed with pET28_CHI_ΔLid and pET22_ERED
# Test: Whole-cell biocatalysis of naringin
# Format: cell-based
# Details: 150 μM naringin, cell suspension OD=150 in 20 mM TRIS-HCl pH 7.5, gassed with nitrogen, 23° C., 900 rpm, 22 h
# Procedure: After successful cloning the plasmid pET28_CHI_ΔLid (FIG. 1) together with the plasmid pET22_ERED was transformed into E. coli BL21.
# 200 mL LBkan, amp were inoculated with 1% (v/v) of an overnight culture and grown at 37° C. to an OD≥1. The induction of the expression was then carried out with 0.1 mM IPTG. The expression of the protein was carried out for 21 h at 20° C.
# After the harvesting of the cells these were normalised with 20 mM TRIS-HCl pH 7.5 to an OD=150. For the implementation of the biocatalyses in each case 490 μL of the cell suspension was added with 10 μL naringin solution (stock solution: 7.5 mM naringin dissolved in 1,2-propylene glycol; final concentration: 150 μM) to a 2 mL Eppendorf reaction vessel and gassed with nitrogen. The biocatalyses were carried out at 23° C., 900 rpm and 22 h. The extraction of the substrates was carried out twice with ethyl acetate.
structure (smiles),measurement,value
C[C@@H]1O[C@@H](O[C@H]2[C@H](Oc3cc(O)c4c(c3)O[C@H](c3ccc(O)cc3)CC4=O)O[C@H](CO)[C@@H](O)[C@@H]2O)[C@H](O)[C@H](O)[C@H]1O [naringin],conversion of the naringin,65%
